In patent US20090221559A1 (priority 2005, published 2009) one finds IC50 and EC50 data, which are given here for 42 molecules.

Like-named read-outs stand apart in the source and are kept apart here. Bounds are passed on as bounds.

Assay [1] addresses T1, HCV NS5B polymerase (His-tagged, C-terminal 21 amino acid deleted NS5B, HC-J4) (Hepatitis C virus genotype 1b, UniProt O92972).
T1 construct: The cDNA encoding NS5B amino acid 1-570 (HC-J4, genotype 1b); His tag (His6, from pET-21b) (C); made in house; host or cells: E. coli BL21 (DE3)
In words: NS5b polymerase assay (biochemical RdRp assay, 3H-GTP incorporation, SPA beads). More on the design: species or system HCV genotype 1b. The note with it: 3H-GTP incorporation, 2 h at 25° C. The procedure, abridged:
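His-tagged C-terminal-21-aa-deleted NS5B (genotype 1b, HC-J4) at 200 nM was preincubated 15 min at RT with compound on 5′-biotinylated oligo(rG13)/poly(rC) template/primer before NTPs. Reaction with 600 nM GTP plus 0.1 μCi 3H-GTP and 5 mM MgCl2 in Tris pH 7.5 ran 2 h at 25 °C. Stopped with EDTA/SPA beads for incorporation counting.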

The subject of assay [2] is HCV replicon RNA replication in Huh-7 luc/neo (Huh-Luc) cells. In words: HCV replicon assay (stable replicon cell reporter assay, luciferase read-out). Format: cell-based, HCV type 1b. The procedure, abridged:
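Huh-7 cells stably carry a bicistronic HCV 1b NS3-NS5B subgenomic replicon with firefly luciferase and neo markers. Cells were plated with compound across a concentration range and incubated three days. Replication was measured as luciferase activity to give dose-response curves.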

Where [3] appears, read: NS5B Polymerase Assay IC50, 200 nM enzyme.
The mark [4] stands for this setting: Hepatitis C virus, Huh-7, 72 h, read-out: Replicon Assay EC50, Huh-Luc cells, three days incubation, luciferase activity.
Where [5] appears, read: 200 nM enzyme, read-out: NS5B Polymerase Assay IC50.
[6] abbreviates: Huh-Luc cells, three days incubation, luciferase activity, read-out: Replicon Assay EC50.

T1 sequence (O92972 2417-3000, looked up, stated change not applied): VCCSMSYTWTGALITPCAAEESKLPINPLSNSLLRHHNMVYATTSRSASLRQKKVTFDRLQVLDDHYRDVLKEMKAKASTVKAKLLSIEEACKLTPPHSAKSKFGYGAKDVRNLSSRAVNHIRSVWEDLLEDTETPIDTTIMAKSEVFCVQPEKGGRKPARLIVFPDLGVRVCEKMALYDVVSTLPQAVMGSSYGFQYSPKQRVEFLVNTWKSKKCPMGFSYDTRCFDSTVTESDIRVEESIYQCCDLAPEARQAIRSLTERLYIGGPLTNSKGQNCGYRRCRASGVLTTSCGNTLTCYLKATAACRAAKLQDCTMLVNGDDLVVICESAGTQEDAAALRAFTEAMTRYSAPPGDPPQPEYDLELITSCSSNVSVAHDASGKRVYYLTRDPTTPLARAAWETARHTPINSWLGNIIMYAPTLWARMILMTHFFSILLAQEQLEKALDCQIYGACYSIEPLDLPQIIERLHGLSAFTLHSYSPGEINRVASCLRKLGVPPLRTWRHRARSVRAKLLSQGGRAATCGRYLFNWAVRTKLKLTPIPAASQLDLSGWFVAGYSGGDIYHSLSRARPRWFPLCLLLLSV

As usually defined, the IC50 is the concentration that gives 50% inhibition. For orientation: EC50 means the concentration needed to bring the measured effect to its halfway point. Take `CC(=O)N1c2ccccc2NC2=C(C(=O)CC(C)(C)C2)C1c1ccc(OCc2ccncc2)cc1` (stereo not drawn) [compound 145, 10-acetyl-3,3-dimethyl-11-[4-(4-pyridylmethoxy)phenyl]-2,3,4,5,10,11-hexahydro-1H-dibenzo[b,e][1,4]diazepin-1-one]: the IC50 in assay [1] (setting [3]) was 23.1 µM. The EC50 in assay [2] (setting [4]) worked out at 5.92 µM.
Molecule `CC(=O)N1c2ccccc2NC2=C(C(=O)CC(C)(C)C2)C1c1ccc(F)cc1F` (stereo not drawn) [compound 146, 10-acetyl-11-(2,4-difluorophenyl)-3,3-dimethyl-2,3,4,5,10,11-hexahydro-1H-dibenzo[b,e][1,4]diazepin-1-one] came in with an IC50 in assay [1] (setting [3]) of 2.02 µM. For the same molecule, the concentration giving a half-maximal response (EC50) in assay [2] (setting [4]) worked out at 23.9 µM.
`CC(=O)N1c2ccccc2NC2=C(C(=O)CC(C)(C)C2)C1c1ccc(Oc2ccccc2Br)cc1` (stereo not drawn) [compound 147, 10-acetyl-11-[4-(2-bromophenoxy)phenyl]-3,3-dimethyl-2,3,4,5,10,11-hexahydro-1H-dibenzo[b,e][1,4]diazepin-1-one] returned a concentration for half-maximal inhibition (IC50) in assay [1] (setting [3]) of 1.97 µM. Moreover, the concentration giving a half-maximal response (EC50) in assay [2] (setting [4]) was determined as 4.22 µM.
`CC(=O)N1c2ccccc2NC2=C(C(=O)CC(C)(C)C2)C1c1ccc(OCc2ccccc2Cl)cc1` (stereo not drawn) [compound 148, 10-acetyl-11-[4-(2-chlorobenzyloxy)phenyl]-3,3-dimethyl-2,3,4,5,10,11-hexahydro-1H-dibenzo[b,e][1,4]diazepin-1-one] had an IC50 in assay [1] (setting [3]) of 83.7 µM. Moreover, the EC50 in assay [2] (setting [4]) amounted to 3.23 µM.
For `CC(=O)N1c2ccccc2NC2=C(C(=O)CC(C)(C)C2)C1c1cccc(Oc2ccccc2Br)c1` (stereo not drawn) [compound 149, 10-acetyl-11-[3-(2-bromophenoxy)phenyl]-3,3-dimethyl-2,3,4,5,10,11-hexahydro-1H-dibenzo[b,e][1,4]diazepin-1-one], in that order: 30.4 µM and 1.78 µM.
In assay [1] (setting [3]), `CC(=O)N1c2ccccc2NC2=C(C(=O)CC(C)(C)C2)C1c1c(Cl)cc(OCc2ccccc2)cc1Cl` (stereo not drawn) [compound 150, 10-acetyl-11-(4-benzyloxy-2,6-dichlorophenyl)-3,3-dimethyl-2,3,4,5,10,11-hexahydro-1H-dibenzo[b,e][1,4]diazepin-1-one] returned an IC50 above 133 µM. Also, the EC50 in assay [2] (setting [4]) was found to be 1.69 µM.
For the molecule `Cc1ccc(C2C3=C(CC(c4ccc(Cl)cc4)CC3=O)Nc3ccccc3N2C(=O)C(F)(F)F)cc1` (stereo not drawn) [compound 160], in assay [1] (setting [5]), the concentration for half-maximal inhibition (IC50) was above 33.3 µM. Moreover, the EC50 in assay [2] (setting [6]) was above 25 µM.
In assay [1] (setting [3]), `Cc1ccc(C2CC(=O)C3=C(C2)Nc2ccccc2N(C(=O)CCC(=O)O)C3c2ccc(C)cc2)cc1` (stereo not drawn) [compound 161] had an IC50 of 29.9 µM. Also, the half-maximal effective concentration (EC50) in assay [2] (setting [4]) is above 25 µM.
Turning to `CCCOc1ccccc1C1CC(=O)C2=C(C1)Nc1ccccc1N(C(=O)C(F)(F)F)C2c1ccc(OC)cc1` (stereo not drawn) [compound 163], the IC50 in assay [1] (setting [5]) is above 42.7 µM. Further, in assay [2] (setting [6]), the concentration giving a half-maximal response (EC50) came out at 1.76 µM.
In assay [1] (setting [3]), `CCCCCC(=O)N1c2ccccc2NC2=C(C(=O)CC(c3ccc(Cl)cc3)C2)C1c1ccc(Cl)cc1` (stereo not drawn) [compound 164] had a 50% inhibitory concentration (IC50) above 33.3 µM. In assay [2] (setting [4]), the EC50 came out at 18.5 µM.
As for `COc1ccc(C2CC(=O)C3=C(C2)Nc2ccccc2N(C(C)=O)C3c2ccc(Cl)cc2)cc1` (stereo not drawn) [compound 165], the IC50 in assay [1] (setting [5]) is above 33.3 µM. Moreover, in assay [2] (setting [6]), the EC50 was determined as 18.6 µM.
For `Cc1ccc(C2C3=C(CC(c4ccccc4F)CC3=O)Nc3ccccc3N2C(=O)c2ccccc2)cc1` (stereo not drawn) [compound 166], in that order: above 42.7 µM and 3.98 µM.
For `CCCCOc1ccc(C2CC(=O)C3=C(C2)Nc2ccccc2N(C(=O)c2ccccc2)C3c2ccccc2)cc1` (stereo not drawn) [compound 167], in that order: above 42.7 µM and 3.25 µM.
For `CCCCCC(=O)N1c2ccccc2NC2=C(C(=O)CC(c3cccc([N+](=O)[O-])c3)C2)C1c1ccc(OC)cc1` (stereo not drawn) [compound 168], in that order: above 42.7 µM and 3.61 µM.
With `Cc1ccc(C2CC(=O)C3=C(C2)Nc2ccccc2N(C(=O)C(F)(F)F)C3c2ccccc2Cl)cc1` (stereo not drawn) [compound 169], the IC50 in assay [1] (setting [5]) was above 33.3 µM. The EC50 in assay [2] (setting [6]) was found to be 17.7 µM.
Take `COc1ccc(C2CC(=O)C3=C(C2)Nc2ccccc2N(C(=O)c2ccccc2)C3c2ccc(C)cc2)cc1OC` (stereo not drawn) [compound 170]: the IC50 in assay [1] (setting [5]) was above 42.7 µM. Further, in assay [2] (setting [6]), the EC50 was 3.75 µM.
For `CCCCOc1ccc(C2CC(=O)C3=C(C2)Nc2ccccc2N(C(=O)C(F)(F)F)C3c2ccccc2)cc1` (stereo not drawn) [compound 171], in that order: above 42.7 µM and 4.54 µM.
For `COc1ccc(C2CC(=O)C3=C(C2)Nc2ccccc2N(C(C)=O)C3c2cccc([N+](=O)[O-])c2)cc1OC` (stereo not drawn) [compound 172], in that order: above 42.7 µM and 11.3 µM.
As to `CCOc1ccccc1C1CC(=O)C2=C(C1)Nc1ccccc1N(C(=O)C(F)(F)F)C2c1ccc(OC)cc1` (stereo not drawn) [compound 173], in assay [1] (setting [5]), the 50% inhibitory concentration (IC50) is above 42.7 µM. Also, the concentration giving a half-maximal response (EC50) in assay [2] (setting [6]) was determined as 0.208 µM.
For `CCCCCC(=O)N1c2ccccc2NC2=C(C(=O)CC(c3cccc([N+](=O)[O-])c3)C2)C1c1ccc(OC)c(OC)c1` (stereo not drawn) [compound 174], in that order: above 42.7 µM and 1.85 µM.
For the molecule `CCOc1ccccc1C1C2=C(CC(c3ccc(OC)cc3)CC2=O)Nc2ccccc2N1C(C)=O` (stereo not drawn) [compound 179], in assay [1] (setting [5]), the IC50 is above 42.7 µM. The EC50 in assay [2] (setting [6]) was 8.54 µM.
With `CCC(C)Oc1ccccc1C1C2=C(CC(c3ccc(OC)c(OC)c3)CC2=O)Nc2ccccc2N1C(=O)c1ccccc1` (stereo not drawn) [compound 183], the IC50 in assay [1] (setting [3]) is above 42.7 µM. Moreover, the concentration giving a half-maximal response (EC50) in assay [2] (setting [4]) was 1.32 µM.
`CCC(=O)N1c2ccccc2NC2=C(C(=O)CC(c3ccc(C)cc3)C2)C1c1ccc(C)cc1` (stereo not drawn) [compound 201] displayed a half-maximal inhibitory concentration (IC50) in assay [1] (setting [3]) above 33.3 µM. For the same molecule, the EC50 in assay [2] (setting [4]) worked out at 9.62 µM.
Consider `CCOc1ccccc1C1CC(=O)C2=C(C1)Nc1ccccc1N(C(=O)CC)C2c1ccc(OC)cc1` (stereo not drawn) [compound 219], for which the IC50 in assay [1] (setting [5]) was above 42.7 µM. Moreover, the concentration giving a half-maximal response (EC50) in assay [2] (setting [6]) was 2.26 µM.
As to `CCCOc1ccccc1C1CC(=O)C2=C(C1)Nc1ccccc1N(C(=O)CC)C2c1ccc(OC)cc1` (stereo not drawn) [compound 220], the IC50 in assay [1] (setting [5]) was above 42.7 µM. The concentration giving a half-maximal response (EC50) in assay [2] (setting [6]) came to 3.08 µM.
For `COc1ccc(C2C3=C(CC(c4cccc([N+](=O)[O-])c4)CC3=O)Nc3ccccc3N2C(=O)c2ccccc2)cc1` (stereo not drawn) [compound 221], in that order: above 42.7 µM and 23.2 µM.
For `CCCCCC(=O)N1c2ccccc2NC2=C(C(=O)CC(c3ccccc3OCCC)C2)C1c1ccc(OC)cc1` (stereo not drawn) [compound 222], in that order: above 42.7 µM and 7.73 µM.
Take `CCC(=O)N1c2ccccc2NC2=C(C(=O)CC(c3ccc(OC)cc3)C2)C1c1ccc(OC)cc1` (stereo not drawn) [compound 223]: in assay [1] (setting [3]), the half-maximal inhibitory concentration (IC50) was above 42.7 µM. In assay [2] (setting [4]), the EC50 worked out at 25 µM.
With `CCCCCC(=O)N1c2ccccc2NC2=C(C(=O)CC(c3ccccc3)C2)C1c1ccccc1F` (stereo not drawn) [compound 224], the IC50 in assay [1] (setting [5]) was above 33.3 µM. For the same molecule, the 50% effective concentration (EC50) in assay [2] (setting [6]) was found to be 16.1 µM.
For `COc1ccc(C2CC(=O)C3=C(C2)Nc2ccccc2N(C(=O)C(F)(F)F)C3c2ccc(Cl)cc2)cc1OC` (stereo not drawn) [compound 226], in that order: above 33.3 µM and 16.3 µM.
For `CCC(=O)N1c2ccccc2NC2=C(C(=O)CC(c3ccc(OC)cc3)C2)C1c1ccc(Cl)cc1` (stereo not drawn) [compound 227], in that order: above 33.3 µM and 17 µM.
Take `CCC(=O)N1c2ccccc2NC2=C(C(=O)CC(c3ccc(OC)c(OC)c3)C2)C1c1ccc(Cl)cc1` (stereo not drawn) [compound 228]: the 50% inhibitory concentration (IC50) in assay [1] (setting [5]) was above 33.3 µM. Further, in assay [2] (setting [6]), the concentration for a half-maximal effect (EC50) is 17.2 µM.
For `CC(=O)N1c2ccccc2NC2=C(C(=O)CC(c3ccccc3Cl)C2)C1c1ccc(C)cc1` (stereo not drawn) [compound 229], in that order: above 42.7 µM and 10.9 µM.
For `Cc1ccc(C2CC(=O)C3=C(C2)Nc2ccccc2N(C(=O)C(F)(F)F)C3c2cccc(Cl)c2)cc1` (stereo not drawn) [compound 230], in that order: above 33.3 µM and 19.6 µM.
For `CCCCCC(=O)N1c2ccccc2NC2=C(C(=O)CC(c3ccc(OC)cc3)C2)C1c1ccc(Cl)cc1` (stereo not drawn) [compound 232], in that order: above 33.3 µM and 22.6 µM.
On to `CC(=O)N1c2ccccc2NC2=C(C(=O)CC(c3cccc([N+](=O)[O-])c3)C2)C1c1ccccc1` (stereo not drawn) [compound 234], for which the half-inhibitory concentration (IC50) in assay [1] (setting [5]) was above 36.2 µM. In assay [2] (setting [6]), the half-maximal effective concentration (EC50) was 3.89 µM.
On to `CC(=O)N1c2ccccc2NC2=C(C(=O)CC(c3ccccc3F)C2)C1c1ccccc1` (stereo not drawn) [compound 236], for which the IC50 in assay [1] (setting [5]) is above 42.7 µM. Besides, the EC50 in assay [2] (setting [6]) was 11.8 µM.
With `CC1(C)CC(=O)C2=C(C1)Nc1ccccc1N(C(=O)Cc1ccccc1)C2c1cccs1` (stereo not drawn) [compound 240], the half-inhibitory concentration (IC50) in assay [1] (setting [3]) is above 42.7 µM. The EC50 in assay [2] (setting [4]) stood at 7.73 µM.
`CCC(=O)N1c2ccccc2NC2=C(C(=O)CC(C)(C)C2)C1c1ccc(-c2ccccc2[N+](=O)[O-])o1` (stereo not drawn) [compound 241] showed a half-maximal inhibitory concentration (IC50) in assay [1] (setting [3]) above 42.7 µM. Moreover, in assay [2] (setting [4]), the EC50 worked out at 17.1 µM.
For `CC(C)CC(=O)N1c2ccccc2NC2=C(C(=O)CC(C)(C)C2)C1c1ccc2c(c1)OCO2` (stereo not drawn) [compound 242], in that order: above 42.7 µM and 1.77 µM.
For `CC(C)C(=O)N1c2ccccc2NC2=C(C(=O)CC(C)(C)C2)C1c1cccs1` (stereo not drawn) [compound 243], in that order: above 33.3 µM and 25.5 µM.
For `CC1(C)CC(=O)C2=C(C1)Nc1ccccc1N(C(=O)Cc1ccc(Cl)cc1)C2c1cccs1` (stereo not drawn) [compound 245], in that order: above 42.6 µM and 3.51 µM.
